Data as given in patent US5705491A, “Adenosine deaminase inhibitor” (Nippon Zoki Pharmaceutical Co., Ltd., priority 1992, dated 1998).

Experiments:
[1] = target: T1, adenosine deaminase of type VII (mucous membrane of intestinal tract of calf) (Bos taurus, UniProt P56658); assay: Adenosine deaminase inhibiting action; type: biochemical; settings: 25° C., 0.05M phosphate buffer pH 7.5, adenosine substrate, 5 minutes, Lineweaver-Burk plots
T1 construct: from tissue; host or cells: mucous membrane of intestinal tract of calf
T1 sequence (P56658 1-363): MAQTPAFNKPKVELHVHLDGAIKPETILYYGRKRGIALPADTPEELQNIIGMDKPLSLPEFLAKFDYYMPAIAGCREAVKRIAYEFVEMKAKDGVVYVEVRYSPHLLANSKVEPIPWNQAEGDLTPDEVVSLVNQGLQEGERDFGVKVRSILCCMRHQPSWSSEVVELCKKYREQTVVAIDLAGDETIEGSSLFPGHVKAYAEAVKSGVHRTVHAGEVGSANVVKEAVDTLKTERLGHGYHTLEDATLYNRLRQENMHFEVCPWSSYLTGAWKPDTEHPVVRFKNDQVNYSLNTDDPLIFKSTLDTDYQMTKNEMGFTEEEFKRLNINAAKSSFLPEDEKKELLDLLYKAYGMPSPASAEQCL
Procedure: 1. Adenosine Deaminase Inhibiting Action
The enzymatic reaction was conducted at 25° C. in a 0.05M phosphate buffer (pH=7.5). Thus, a reaction solution comprising 800 μl of substrate solution (adenosine), 100 μl of a solution to be tested and 100 μl of enzyme solution (adenosine deaminase of type VII; mucous membrane of intestinal tract of calf) was reacted for 5 minutes and the reaction was stopped by adding 100 μl of acetic acid. Then the amount of inosine produced was determined by means of an HPLC to measure the inhibiting activity. The test was conducted for various substrate concentrations and Ki values were measured by Lineweaver-Burk plots.

[2] = tested on: ischemic edema of hind paw of mice; assay: Suppressive action against ischemic edema; type: in vivo, ICR-strain male mice
Procedure: 4. Suppressive Action against Ischemic Edema
The right hind paw of ICR-strain male mice (11 weeks of age) were fastened with a rubber band to stop the blood stream for 20 minutes, and then the rubber band was removed to recover the blood stream. The tested drug was administered intravenously before the treatment. Each of the right and left hind paws were weighed and the suppressive action was measured according to the weight difference between the treated and untreated paws.

Structure (SMILES) | Ki [1] | also measured
CNc1nc(C)nc2c1ncn2[C@@H]1O[C@H](COC)[C@@H](O)[C@H]1O [Compound 34, 2,N^6,5'-O-Trimethyladenosine] | 359 µM | 
CO[C@@H]1[C@H](O)[C@@H](CO)O[C@H]1n1cnc2c(N)nc(I)nc21 [Compound 47, 2-Iodo-2'-O-methyladenosine] | 0.23 µM | 
CNc1nc(Nc2ccccc2)nc2c1ncn2[C@@H]1O[C@H](CO)[C@@H](O)[C@H]1OC [Compound 55, 2-Phenylamino-N^6,2'-O-dimethyladenosine] | 0.013 µM | 
CCCCCCO[C@@H]1[C@H](O)[C@@H](CO)O[C@H]1n1cnc2c(NC)ncnc21 [Compound 23, N^6 -Methyl-2'-O-n-hexyladenosine] | 0.89 µM | 
CO[C@@H]1[C@H](O)[C@@H](CO)O[C@H]1n1cnc2c(N)nc(Br)nc21 [Compound 43, 2-Bromo-2'-O-methyladenosine] | 3.2 µM | 
CO[C@H]1[C@@H](O)[C@H](n2cnc3c(N)nc(-c4ccccc4)nc32)O[C@@H]1CO [Compound 38, 2-Phenyl-3'-O-methyladenosine] | 7.9 µM | 
CCCCO[C@@H]1[C@H](O)[C@@H](CO)O[C@H]1n1cnc2c(NC)ncnc21 [Compound 22, N^6 -Methyl-2'-O-n-butyladenosine] | 0.0558 µM | 
CCCCCCc1nc(NC)c2ncn([C@@H]3O[C@H](CO)[C@@H](O)[C@H]3OC)c2n1 [Compound 30, N^6,2'-O-Dimethyl-2-hexyladenosine] | 0.09 µM | 
CNc1nc(C)nc2c1ncn2[C@@H]1O[C@H](CO)[C@@H](OC)[C@H]1OC [Compound 64, 2,N^6,2',3'-O-Tetramethyladenosine] | 0.88 µM | 
CO[C@H]1[C@@H](O)[C@H](n2cnc3c(N)ncnc32)O[C@@H]1CO [Compound 2, 3'-O-Methyladenosine] | 493 µM | 
CCCCCCCCO[C@@H]1[C@H](O)[C@@H](CO)O[C@H]1n1cnc2c(NC)ncnc21 [Compound 24, N^6 -Methyl-2'-O-n-octyladenosine] | 0.11 µM | 
CCCCCNc1nc(N)c2ncn([C@@H]3O[C@H](CO)[C@@H](O)[C@H]3OC)c2n1 [Compound 52, 2-Pentylamino-2'-O-methyladenosine] | 0.6 µM | 
CCO[C@@H]1[C@H](O)[C@@H](CO)O[C@H]1n1cnc2c(NC)ncnc21 [Compound 21, N^6 -Methyl-2'-O-ethyladenosine] | 0.33 µM | 
CCCCCCCCCCC#Cc1nc(NC)c2ncn([C@@H]3O[C@H](CO)[C@@H](O)[C@H]3OC)c2n1 [Compound 33, N^6,2'-O-Dimethyl-2-(1-dodecyn-1-yl)-adenosine] | 15 µM | 
CO[C@@H]1[C@H](O)[C@@H](CO)O[C@H]1n1cnc2c(NC3CCCCC3)ncnc21 [Compound 73, N^6 -Cyclohexyl-2'-O-methyladenosine] | 1030 µM | 
CO[C@@H]1[C@H](O)[C@@H](CO)O[C@H]1n1cnc2c(N)nc(C#CCO)nc21 [Compound 57, 2-(3-Hydroxy-1-propyn-1-yl)-2'-O-methyladenosine] | 30 µM | 
CO[C@@H]1[C@H](O)[C@@H](CO)O[C@H]1n1cnc2c(N)nc(-c3ccccc3)nc21 [Compound 37, 2-Phenyl-2'-O-methyladenosine] | 0.66 µM | 
CCO[C@@H]1[C@H](OCC)[C@@H](CO)O[C@H]1n1cnc2c(NC)ncnc21 [Compound 61, N^6 -Methyl-2',3'-O-diethyladenosine] | 0.15 µM | 
CCNc1ncnc2c1ncn2[C@@H]1O[C@H](CO)[C@@H](O)[C@H]1OC [Compound 19, N^6 -Ethyl-2'-O-methyladenosine] | 77.8 µM | 
CO[C@@H]1[C@H](OC)[C@@H](CO)O[C@H]1n1cnc2c(N)nc(C)nc21 [Compound 63, 2,2',3'-O-Trimethyladenosine] | 1.3 µM | 
CCCCC#Cc1nc(NC)c2ncn([C@@H]3O[C@H](CO)[C@@H](O)[C@H]3OC)c2n1 [Compound 32, N^6,2'-O-Dimethyl-2-(1-hexyn-1-yl)-adenosine] | 0.12 µM | 

Structure (SMILES) | Ki [1] | also measured
CO[C@@H]1[C@H](O)[C@@H](CO)O[C@H]1n1cnc2c(N)nc(Nc3ccccc3)nc21 [Compound 53, 2-Phenylamino-2'-O-methyladenosine] | 0.17 µM | 
CO[C@@H]1[C@H](O)[C@@H](CO)O[C@H]1n1cnc2c(N)nc(N)nc21 [Compound 50, 2-Amino-2'-O-methyladenosine] | 28 µM | 
CO[C@H]1[C@@H](O)[C@H](n2cnc3c(N)nc(Br)nc32)O[C@@H]1CO [Compound 44, 2-Bromo-3'-O-methyladeonsine] | 22 µM | 
Oc1ncnc2[nH]ncc12 [Allopurinol] |  | Paw Weight, Treated ([2]; 10 mg/kg intravenous before ischemia, treated paw): 283.2 ± 6.3 mg; Paw Weight, Untreated ([2]; 10 mg/kg intravenous before ischemia, untreated paw): 222.9 ± 6.9 mg; Inhibition (of ischemic edema) ([2]; 10 mg/kg intravenous, from weight difference between treated and untreated paws): 36.4%
CO[C@H]1[C@@H](O)[C@H](n2cnc3c(N)nc(Nc4ccccc4)nc32)O[C@@H]1CO [Compound 54, 2-Phenylamino-3'-O-methyladenosine] | 2.2 µM | 
CO[C@H]1[C@@H](O)[C@H](n2cnc3c(N)nc(C)nc32)O[C@@H]1CO [Compound 6, 2,3'-O-Dimethyl adenosine] | 179 µM | 
CCCCNc1ncnc2c1ncn2[C@@H]1O[C@H](CO)[C@@H](O)[C@H]1OC [Compound 20, N^6-n-Butyl-2'-O-methyladenosine] | 269 µM | 
CNc1ncnc2c1ncn2[C@@H]1O[C@H](COC)[C@@H](O)[C@H]1O [Compound 25, N^6, 5'-O-Dimethyladenosine] | 359 µM | 
CO[C@@H]1[C@H](O)[C@@H](CO)O[C@H]1n1cnc2c(N)ncnc21 [Compound 1, 2'-O-Methyladenosine] | 13.1 µM | 
CNc1ncnc2c1ncn2[C@@H]1O[C@H](CO)[C@@H](OC)[C@H]1OC [Compound 60, N^6,2',3'-O-Trimethyladenosine] | 0.75 µM | 
CNc1nc(Br)nc2c1ncn2[C@@H]1O[C@H](CO)[C@@H](OC)[C@H]1O [Compound 46, 2-Bromo-N^6,3'-O-dimethyladeonsine] | 3.7 µM | 
CO[C@H]1[C@@H](O)[C@H](n2cnc3c(N)nc(I)nc32)O[C@@H]1CO [Compound 48, 2-Iodo-3'-O-methyladeonsine] | 4.4 µM | 
CO[C@H]1[C@@H](O)[C@H](n2cnc3c(N)nc(N)nc32)O[C@@H]1CO [Compound 51, 2-Amino-3'-O-methyladenosine] | 5 µM | 
CNc1nc(Br)nc2c1ncn2[C@@H]1O[C@H](CO)[C@@H](O)[C@H]1OC [Compound 45, 2-Bromo-N^6,2'-O-dimethyladenosine] | 0.12 µM | 
CO[C@@H]1[C@H](OC)[C@@H](CO)O[C@H]1n1cnc2c(N)ncnc21 [Compound 59, 2',3'-O-Dimethyladenosine] | 7.5 µM | 
CCCCO[C@@H]1[C@H](O)[C@@H](CO)O[C@H]1n1cnc2c(N)ncnc21 [Compound 4, 2'-O-n-Butyladenosine] | 3.47 µM | 
CNc1ncnc2c1ncn2[C@@H]1O[C@H](CO)[C@@H](O)[C@H]1OC [Compound 18, N^6,2'-O-Dimethiladenosine] | 1.24 µM | 
CNc1nc(Nc2ccccc2)nc2c1ncn2[C@@H]1O[C@H](CO)[C@@H](OC)[C@H]1O [Compound 56, 2-Phenylamino-N^6,3'-O-dimethyladenosine] | 0.11 µM | 
CO[C@@H]1[C@H](O)[C@@H](CO)O[C@H]1n1cnc2c(N)nc(C)nc21 [Compound 5, 2,2'-O-Dimethyl adenosine] | 24.6 µM | 
CCCCCCCCCCc1nc(NC)c2ncn([C@@H]3O[C@H](CO)[C@@H](O)[C@H]3OC)c2n1 [Compound 31, N^6,2'-O-Dimethyl-2-decyladenosine] | 0.28 µM | 
CO[C@@H]1[C@H](O)[C@@H](CO)O[C@H]1n1cnc2c(N)nc(O)nc21 [Compound 39, 2-Hydroxy-2'-O-methyladenosine] | 19 µM | 
